In patent EP4790048A1, “S1PR4 REGULATOR COMPOUND FOR AUTOIMMUNE DISEASE TREATMENT AND APPLICATION THEREOF” (Shengyuan Zetong (Shanghai) Pharmaceutical Co., Ltd, priority 2023, dated 2025):

Experiments:
hS1P4-R-79C = target: T1, hS1P4-R-79C (Homo sapiens, UniProt O95977, R79C); experiment: Tango β-arrestin recruitment luciferase assay, Tango-hS1P4-R-79C-CHO (S1PR4 mutant); type: cell-based; conditions: 20 h drug treatment
T1 construct: expressed in transfected cells; host or cells: CHO
T1 sequence (O95977 1-384 R79C): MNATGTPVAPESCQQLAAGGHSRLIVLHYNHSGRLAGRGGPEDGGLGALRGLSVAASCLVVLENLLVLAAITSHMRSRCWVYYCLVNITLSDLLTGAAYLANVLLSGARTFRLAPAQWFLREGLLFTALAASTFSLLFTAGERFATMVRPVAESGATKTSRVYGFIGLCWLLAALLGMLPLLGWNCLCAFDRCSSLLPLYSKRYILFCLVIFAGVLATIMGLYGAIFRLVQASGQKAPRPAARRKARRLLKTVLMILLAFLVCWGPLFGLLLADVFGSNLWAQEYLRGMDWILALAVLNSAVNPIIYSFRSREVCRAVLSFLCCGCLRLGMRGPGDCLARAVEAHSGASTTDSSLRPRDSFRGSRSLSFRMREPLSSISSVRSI
Excerpt: The Tango assay detects ligand-dependent GPCR activity through the interaction between β-arrestin and GPCRs. […] The NTEV fragment and the tetracycline transactivator (tTA), an artificial transcription factor, are fused at the C-terminus of the GPCR, while the CTEV fragment is fused to human β-arrestin 2. To enhance the stability of the interaction between GPCR and β-arrestin, a short sequence from the C-terminus of the human arginine vasopressin receptor 2 (V2 tail) is inserted between the GPCR and NTEV. The V2 tail contains multiple GRK phosphorylation sites, which strengthen β-arrestin binding upon phosphorylation. The CTEV fragment carries the stabile point mutation S219P and is truncated at residue 221 to remove the autoinhibitory C-terminal tail. Meanwhile, β-arrestin 2 is truncated to lack the entire C-terminal tail (residues 383-410 deleted). This truncation confers robust stimulus-dependent receptor desensitization, thereby improving detection sensitivity compared with wild-type β-arrestin 2. The UAS reporter construct consists of upstream activating sequence (UAS) elements, a minimal CMV promoter, and a tTA-dependent luciferase reporter gene. Therefore, constructing Tango cells requires the co-transfection of the above three plasmids into host cells. Upon GPCR activation and β-arrestin recruitment, the TEV enzyme at the β-arrestin terminus cleaves tTA from the GPCR C-terminus. The released tTA initiates tTA-dependent luciferase transcription, and compound activity is ultimately determined by measuring luminescence intensity.
• 1) Tango cell line from was digested from the culture dish respectively. After cell counting, the cells were plated at a density of 10,000 cells per well with […] into a white opaque 96-well plate (add 60 µL D'Hanks to the surrounding wells), and incubated overnight (20 h) in a 5% CO2 incubator at 37°C. The cell density will reach approximately 90% the next day. • 2) After 20 h, 30 µL of serially diluted compound solution was added to each well. The control group was supplemented with 30 µL F12K complete medium. Each group had three replicate wells. • 3) Samples were collected after 20 h of drug treatment.
(All compounds were tested at a final concentration of 45 µM, with 9 serial dilutions at 5-fold intervals. 1 µM BAF-312 was used as the positive control for S1PR1, and 25 µM BAF-312 was used as the positive control for S1PR4.

BALB/c mice = experiment: DSS-induced chronic ulcerative colitis in mice (Example 6); type: in vivo
Excerpt: BALB/c mice were acclimatized for 7 days before the experiment. From Day 7 to Day 50 of the experiment, the mice were weighed daily and their blood and stool conditions were observed, scored and recorded according to the following table (Table 1). After random grouping, all groups except the Control group were given free access to 2-3% DSS solution for modeling from Day 7 to Day 14, while the Control group received normal drinking water during the same period. One cycle lasted 14 days and was repeated 3 times. Re-grouping was performed at the start of the final cycle to initiate drug administration. The Control group and Model group received no drug but the same solvent. The other groups were intragastrically administered 1 mg/kg, 3 mg/kg, 9 mg/kg, and SASP 500 mg/kg respectively. On Day 45, blood and colon samples were collected, colon length was measured, and a 1-2 cm colon segment was fixed with formaldehyde.
• BALB/c mice, male, 20-22 g • Dextran sulfate sodium MW: 36,000-50,000 (DSS) • 30 1 mg/kg, 3 mg/kg, 9 mg/kg, SASP (500 mg/kg) indicators were observed.
(1) Clinical Symptom Score: The mice were weighed daily and their blood and stool were observed during the experiment for DAI scoring, which was graded and recorded according to the following table (Table 1).
(2) After the experiment, the colon was removed, its length measured and weight recorded. The colon-to-body weight index (colon weight/body weight × 100%) and colon swelling rate (colon weight/length × 100%) were calculated.
Colonic tissue approximately 1 cm from the anal margin (0.5 cm) and ileocecal region tissue were collected for histopathological examination. After H&E staining, the tissues were scored under single-blind conditions to evaluate the level of distal colon inflammation and tissue damage; scoring was performed according to the Ameho criteria and calculated as follows: • Score 0: No abnormal findings in the texture. • Score 1: Mild inflammatory infiltration of the mucosa and/or submucosa (mixed with neutrophils), submucosal edema, punctate mucosal erosion, accompanied by capillary proliferation. The muscularis mucosae is intact. • Score 2: Changes of Score 1 account for more than 50%. • Score 3: Obvious inflammatory infiltration and edema (neutrophils are often predominant); ulcers usually penetrate the muscularis mucosae to reach the submucosa. There is little inflammatory cell infiltration in the muscularis propria and no muscle necrosis. • Score 4: Changes of Score 3 account for more than 50%. • Score 5: Large confluent ulcers with coagulative necrosis, massive neutrophil infiltration at the margins and few monocytes. Necrotic tissue penetrates the muscularis propria. • Score 6: Changes of Score 5 account for more than 50% of the specimen.
The fence function of Occludin separates the apical and basolateral sides of the epithelial cell plasma membrane, restricting the free flow of lipids on the cell membrane, facilitating the formation of cell polarity, maintaining the impermeability and rigidity of the intestinal mucosa, and preventing the entry of pathogenic microorganisms. The barrier function of Occludin can regulate the transport of small molecules and maintain tissue homeostasis. The expression and distribution of related proteins are detected by immunohistochemistry.
During modeling, the body weight of mice in the control group increased steadily. In the model group, during the first modeling period, mice were given 3% DSS drinking water ad libitum for 7 days, followed by tap water ad libitum for 7 days. On Day 4 of modeling, the body weight of mice began to decrease generally, reaching the lowest point on Day 8, and then started to rise. During the second modeling period, mice were given 2% DSS drinking water ad libitum for 7 days, followed by tap water ad libitum for 7 days. […]

For `CCc1cc(/C(C)=N/OCc2ccc(-c3ccccc3)c(C)c2)ccc1CN1CC[C@H](C(=O)O)C1` [Compound 30], the EC50 (hS1P4-R-79C) was 15 nM, the “body weight during administration” value (BALB/c mice; 30 1 mg/kg) was “remained relatively stable during administration” and the “body weight during administration” value (BALB/c mice; 30 3 mg/kg) was “remained relatively stable during administration”. For the same molecule, the “body weight change rate” value (BALB/c mice; 30 3 mg/kg, before and after administration, vs model group) was “significantly increased”, the “total DAI scores of the administration for 14 days” value (BALB/c mice; 30 3 mg/kg, vs model group) was “significantly lower” and the “colon pathological changes (H&E staining)” value (BALB/c mice; 30 at 1 mg/kg) was “no obvious inflammatory cell infiltration was observed”. For the same molecule, the “colon pathological changes (H&E staining)” value (BALB/c mice; 30 at 3 mg/kg) was “no obvious inflammatory cell infiltration was observed”, the “daily DAI score” value (BALB/c mice; 30 treatment group, SASP 500 mg/kg, vs model group) was “decreased more rapidly” and the body weight recovery (BALB/c mice; 30 treatment groups (1, 3, 9 mg/kg), SASP 500 mg/kg, vs model group) was “recovered rapidly and increased substantially”. For the same molecule, the colon length (BALB/c mice; Compound 30 3 mg/kg, vs Model group) was “significantly inhibited DSS-induced colon shortening”, the colon length (BALB/c mice; Compound 30 9 mg/kg, vs Model group) was “significantly inhibited DSS-induced colon shortening” and the “Occludin expression in colonic mucosa (immunohistochemistry)” value (BALB/c mice; vs Model group) was “the expression of Occludin was increased”.
